In patent US8729076B2, “Secondary 8-hydroxyquinoline-7-carboxamide derivatives” (Polichem SA, priority 2009, dated 2014):
≈ marks a conversion by molar mass, not a printed value. Where two headings read alike, the source gives them in different places.

Tests used:
Assay type in all cases: cell-based
[1] = test system: Candida Albicans (ATCC 90028); experiment: Broth micro-dilution antifungal susceptibility test (MIC); conditions: 35° C.
Description: (§1) Trichophyton Rubrum (ATCC 28188, PBI International); Trichophyton Mentagrophytes (ATCC 9533, PBI International); Aspergillus Niger (ATCC 16404, PBI International); Scopulariopsis Brevicaulis (ATCC 36840, DSMZ); Candida Albicans (ATCC 90028, PBI International); Candida Glabrata (ATCC 90030, DSMZ).
(§2) Compounds' minimal inhibition concentration (MIC) was determined through broth micro-dilution susceptibility test using a method developed in agreement with the National Committee for Clinical Laboratory Standards (NCCLS) (National Committee for Clinical Laboratory Standards. Reference Method for Broth Dilution Antifungal Susceptibility Testing of Yeasts; Approved standard-Second Edition M27-A2. 2002; Vol. 22, No. 15) (National Committee for Clinical Laboratory Standards. Reference Method for Broth Dilution Antifungal Susceptibility Testing of Filamentous Fungi; Approved standard M38-A. 2002; Vol. 22, No. 16).
(§3) Assays were carried out in RPMI 1640 with L-glutamine medium buffered to pH 7 with 0.165M 3-(N-morpholino)propanesulfonic acid (MOPS) and 10M NaOH and supplemented with 18 g glucose/liter. The tests were performed using 96 well sterile plates (inoculum size of 1×10^5 CFU/mL). Compounds stock solutions were prepared at 12.8 mg/mL in 100% DMSO. A series of twofold dilutions were prepared in plate using RPMI 1640. Final concentrations ranged from 0.125 to 128 μg/mL at 1% DMSO.

[2] = test system: Trichophyton Mentagrophytes (ATCC 9533); experiment: as above; conditions: ATCC9533, 120 h, 35° C.
Description: as §1, §2, §3

[3] = test system: Trichophyton Rubrum (ATCC 28188); experiment: as above; conditions: ATCC28188, 120 h, 35° C.
Description: as §1, §2, §3

[4] = test system: Aspergillus Niger (ATCC 16404); experiment: as above; conditions: ATCC16404, 120 h, 35° C.
Description: as §1, §2, §3

[5] = test system: Scopulariopsis Brevicaulis (ATCC 36840); experiment: as above; conditions: ATCC36840, 120 h, 35° C.
Description: as §1, §2, §3

[6] = test system: Candida Glabrata (ATCC 90030); experiment: as above; conditions: Nakaseomyces glabratus, ATCC90030, 48 h, 35° C.
Description: as §1, §2, §3

[7] = test system: 6 strains tested, including yeasts, dermatophytes and molds; experiment: Antifungal spectrum over the 6 strains tested (MIC test); conditions: 6 strains: yeasts
Description: as §1, §2, §3

[8] = test system: Candida Glabrata (ATCC 90030); experiment: Assessment of the mechanism of action: antifungal activity with or without 100 μM Fe3+; conditions: 100 μM FeCl3 in the test medium; OD at 540 nm
Description: To verify if the compounds mechanism of action is the chelation of iron ions, the MIC determination with Candida glabrata (ATCC 90030) strain was performed by the addition of excessive iron ions (100 μM FeCl3) in the test medium. The viability of cells exposed to drugs, with or without the metal ion Fe^3+, was evaluated by the OD measure at 540 nm.
Compounds described in Example 2, E8 and NiK-29298 were evaluated in presence and in absence of 100 μM (100 micromoles) Fe^3+.
In all figures, the lines and dots represent the percent inhibition of the fungal growth (in ordinate) by adding different concentrations of antifungal agents (in abscissa). Blue lines and dots are the experiments performed without iron supplementation, while red lines and dots represent the results of the experiments performed in presence of 100 μM Fe^3+. […] Conversely, Fe^3+ has no effect on amphotericin, an antifungal agent known in the art to have a mechanism of action different from that of ciclopirox.

[9] = ATCC90028, geometric means of two single experiments, 48 h, Table 3
[10] = geometric means of two single experiments, five days, Table 3, read-out: MIC Tricophyton Mentagrophytes ATCC 9533
[11] = geometric means of two single experiments, five days, Table 3, read-out: MIC Trycophyton Rubrum ATCC 28188
[12] = geometric means of two single experiments, five days, Table 3
[13] = geometric means of two single experiments, Table 3
[14] = ATCC90028, comparison compounds, Table 5, 48 h
[15] = comparison compounds, Table 5, five days, read-out: MIC Tricophyton Mentagrophytes ATCC 9533
[16] = comparison compounds, Table 5, five days, read-out: MIC Trycophyton Rubrum ATCC 28188
[17] = comparison compounds, Table 5, five days

MIC [1, 9]	MIC [2, 10]	MIC [3, 11]	MIC [4, 12]	MIC [5, 12]	MIC [6, 13]	MIC [1, 14]	MIC [2, 15]	MIC [3, 16]	MIC [4, 17]	MIC [5, 17]	MIC ([6]; comparison compounds, Table 5)	Structure (SMILES)	Spectrum of antifungal activity on the strains tested [7]	Effect of Fe3+ on antifungal activity [8]
4 µg/mL (≈ 14.3 µM)	2 µg/mL (≈ 7.16 µM)	2 µg/mL (≈ 7.16 µM)	0.5 µg/mL (≈ 1.79 µM)	1 µg/mL (≈ 3.58 µM)	4 µg/mL (≈ 14.3 µM)							O=C(NCc1ccccn1)c1ccc2cccnc2c1O [Example 1, 8-Hydroxy-N-(pyridin-2-ylmethyl)quinoline-7-carboxamide]		
1.41 µg/mL (≈ 3.95 µM)	1 µg/mL (≈ 2.8 µM)	1.41 µg/mL (≈ 3.95 µM)	0.71 µg/mL (≈ 1.99 µM)	1.41 µg/mL (≈ 3.95 µM)	1.41 µg/mL (≈ 3.95 µM)							O=C(NCc1ccc(Br)cc1)c1ccc2cccnc2c1O [Example 2, 8-Hydroxy-N-(4-bromobenzyl)quinoline-7-carboxamide]		
2 µg/mL (≈ 6.21 µM)	0.5 µg/mL (≈ 1.55 µM)	0.25 µg/mL (≈ 0.776 µM)	1 µg/mL (≈ 3.1 µM)	1 µg/mL (≈ 3.1 µM)	2 µg/mL (≈ 6.21 µM)							O=C(Nc1ccc2c(c1)OCCO2)c1ccc2cccnc2c1O [Example 9, 8-Hydroxy-N-(2,3-dihydrobenzo[b][1,4]dioxin-6-yl)quinoline-7-carboxamide]		
2 µg/mL (≈ 7.06 µM)	4 µg/mL (≈ 14.1 µM)	1 µg/mL (≈ 3.53 µM)	1 µg/mL (≈ 3.53 µM)	2.83 µg/mL (≈ 9.99 µM)	2 µg/mL (≈ 7.06 µM)							Cc1cc(CNC(=O)c2ccc3cccnc3c2O)no1 [Example 11, 8-Hydroxy-N-((5-methylisoxazol-3-yl)methyl)quinoline-7-carboxamide]		
2 µg/mL (≈ 6.68 µM)	2.83 µg/mL (≈ 9.45 µM)	1.41 µg/mL (≈ 4.71 µM)	1 µg/mL (≈ 3.34 µM)	1 µg/mL (≈ 3.34 µM)	2 µg/mL (≈ 6.68 µM)							Cc1csc(CNC(=O)c2ccc3cccnc3c2O)n1 [Example 12, 8-Hydroxy-N-((4-methylthiazol-2-yl)methyl)quinoline-7-carboxamide]		
2 µg/mL (≈ 5.96 µM)	1 µg/mL (≈ 2.98 µM)	2 µg/mL (≈ 5.96 µM)	0.5 µg/mL (≈ 1.49 µM)	1 µg/mL (≈ 2.98 µM)	2.83 µg/mL (≈ 8.44 µM)							O=C(NCc1nc2ccccc2s1)c1ccc2cccnc2c1O [Example 14, 8-Hydroxy-N-(benzo[d]thiazol-2-ylmethyl)quinoline-7-carboxamide]		

Continued, compound first:

Structure (SMILES)	MIC [1, 9]	MIC [2, 10]	MIC [3, 11]	MIC [4, 12]	MIC [5, 12]	MIC [6, 13]	MIC [1, 14]	MIC [2, 15]	MIC [3, 16]	MIC [4, 17]	MIC [5, 17]	MIC ([6]; comparison compounds, Table 5)	Spectrum of antifungal activity on the strains tested [7]	Effect of Fe3+ on antifungal activity [8]
CN(C)c1ccc(CNC(=O)c2ccc3cccnc3c2O)cc1 [Example 4, 8-Hydroxy-N-(4-(dimethylamino)benzyl)quinoline-7-carboxamide]	2.83 µg/mL (≈ 8.81 µM)	0.71 µg/mL (≈ 2.21 µM)	1 µg/mL (≈ 3.11 µM)	0.5 µg/mL (≈ 1.56 µM)	1 µg/mL (≈ 3.11 µM)	1.41 µg/mL (≈ 4.39 µM)								
O=C(Nc1ccc(-n2cncn2)cc1)c1ccc2cccnc2c1O [Example 7, 8-Hydroxy-N-(4-(1H-1,2,4-triazol-1-yl)phenyl)quinoline-7-carboxamide]	2 µg/mL (≈ 6.04 µM)	2 µg/mL (≈ 6.04 µM)	2.52 µg/mL (≈ 7.61 µM)	1 µg/mL (≈ 3.02 µM)	1.26 µg/mL (≈ 3.8 µM)	2.83 µg/mL (≈ 8.54 µM)								
O=C(NCc1ccc(N2CCOCC2)cc1)c1ccc2cccnc2c1O [Example 10, 8-Hydroxy-N-(4-morpholinobenzyl)quinoline-7-carboxamide]	4 µg/mL (≈ 11 µM)	0.5 µg/mL (≈ 1.38 µM)	1 µg/mL (≈ 2.75 µM)	0.5 µg/mL (≈ 1.38 µM)	4 µg/mL (≈ 11 µM)	2 µg/mL (≈ 5.5 µM)								
O=C(NCc1ccc(OCc2ccccc2)cc1)c1ccc2ncccc2c1 [Example E8, reference compound]							1.41 µg/mL (≈ 3.83 µM)	75 µg/mL (≈ 204 µM)	> 128 µg/mL	2 to 128 µg/mL (≈ 5.43 to 347 µM)	> 128 µg/mL	1 µg/mL (≈ 2.71 µM)	active only on yeasts	not inhibited
O=C(NCc1ccccc1)c1ccc2ncccc2c1 [NiK-29298, reference compound]							2 µg/mL (≈ 7.62 µM)	128 µg/mL (≈ 488 µM)	> 128 µg/mL	64 to 128 µg/mL (≈ 244 to 488 µM)	> 128 µg/mL	5.65 µg/mL (≈ 21.5 µM)	active only on yeasts	not inhibited
C[C@@H]1[C@H](O)[C@@H](C)/C=C/C=C/C=C/C=C/C=C/C=C/C=C/[C@H](O[C@@H]2O[C@H](C)[C@@H](O)[C@H](N)[C@@H]2O)C[C@@H]2O[C@](O)(C[C@@H](O)C[C@@H](O)[C@H](O)CC[C@@H](O)C[C@@H](O)CC(=O)O[C@H]1C)C[C@H](O)[C@H]2C(=O)O [amphotericin]														no effect
Cc1cc(C2CCCCC2)n(O)c(=O)c1 [ciclopirox]														completely inhibited
